# In article PMC7782499, “Progerinin, an optimized progerin-lamin A binding inhibitor, ameliorates premature senescence phenotypes of Hutchinson-Gilford progeria syndrome” (Communications Biology, 2021):
# Where “and” joins values, the source holds several entries; their conditions need not be identical. Identical values can stand only once. Like-named read-outs stand apart in the source and are kept apart here.
# Legend:
# [1] = system: H3K9me3; assay: H3K9me3 expression in HGPS cells; assay type: cell-based, human; settings: for H3K9me3 intensity / H3K9me3 positive cells after treatment with chemicals, Ave / H3K9me3 positive cells after treatment with chemicals: AG03198; for H3K9me3 positive cells after treatment with chemicals, Ave: average; for H3K9me3 positive cells after treatment with chemicals: single replicates
# Description: Fig. 1 SLC-D011 ameliorates premature aging features of HGPS. A. HEK293 cells were transiently transfected with expression vector encoding wild-type lamin A (WT-LA), lamin A-C661A (LA-C661A), progerin, or progerin-C611A. LA-C661A or progerin-C611A with point mutation in CaaX motif was predicted to be lack of farnesylation, […] that of authentic WT-LA or progerin. GFP-conjugated empty expression vector was used as a negative control. Cells were visualized at 24 h after transfection. B Transient transfection of HEK293 cells with expression vector encoding progerin or […] leads to reduced expression of H3K9me3 (n = 3 independent experiments; two-tailed Student’s t test). C. JH4 derivatives (JH010 and SLC-D011(D011)) inhibit lamin A and progerin interaction. For binding inhibition assay, bead-conjugated lamin A (GST-LA) was incubated with HEK293 cells, transiently transfected with GFP-progerin (PG), and treated with indicated chemicals. Actin was used as a loading control. PPT, co-precipitated materials with recombinant proteins; Sup supernatant. 5 μM of each chemical was used for binding assay. […] H3K9me3 reduction is a well-known marker for premature aged cells. Thus, H3K9me3 expression was evaluated by immunostaining. […] E SLC-D011 obviously suppresses progerin expression. For progerin expression analysis, each chemical was used to treat HGPS cells (AG03198, Coriell Cell Repositories) for 7 days. […] F SLC-D011 reduces the expression of progerin in other HGPS cells (AG11513 and AG11498, Coriell Cell Repositories). Treatment with SLC-D011 (2 μM) for 7 days reduced the expression of progerin and p16/INK4A but induced the expression of H3K9me3. […] G JH4, JH010, and SLC-D011 promote cell proliferation. Cell viability was determined by MTT assay after incubation with chemicals for 7 days (n = 3 independent experiments; two-tailed Student’s t test). H JH4, JH010, and SLC-D011 show similar activity for ameliorating nuclear deformation. After incubation with chemicals for 7 days, cells were stained with progerin and H3K9me3 antibodies (n = 3 independent experiment; two-tailed Student’s t test), **p < 0.001. Data are reported as mean ± SD. “Con” means Dimethyl sulfoxide (DMSO)-treated control. The data are normalized to DMSO-treated cells.
# Cells were cultured on coverslips, washed with PBS, fixed with 4% paraformaldehyde (PFA) for 30 min at RT, and then permeabilized with 0.2% Triton X-100 at RT for 5 min. After treatment with blocking solution (anti-Human antibody diluted 1:400 in PBS) for 1 h, cells were incubated with anti-lamin A/C (1:400), anti-progerin (1:100), Ki67 (1:200), and anti-H3K9me3 (1:200) in blocking buffer overnight at 4 °C. Finally, cells were incubated with fluorescein isothiocyanate and rhodamine-conjugated secondary antibodies at 4 °C for 7 h. Nuclei were stained with DAPI (4, 6-diamidino-2-phenylindole) at RT for 10 min. After cells were washed three times with PBS, coverslips were mounted with mounting solution (H-5501; Vector Laboratories, Burlingame, CA, USA). Immunofluorescence signal was detected with a fluorescence microscopy (Zeiss and Logos).
# For nuclear deformation cell counting, immunofluorescence staining was performed with lamin A or progerin antibodies. After staining, abnormal nuclear membrane was counted in randomly selected fields and expressed as percentages or actual numbers of total cells counted. Abnormalities of nuclear membrane were determined based on the following: (1) lamin A/C or progerin lining was extruded or engulfed, (2) having at least one bleb, and (3) irregular contour. Counting of cells with nuclear deformation was performed by three independent observers who were blinded to chemical treatment group. To analyze histone H3K9me3 intensity or expression, images were quantified using “color histogram” function of Image J software (National Institute of Health, NIH). Fluorescence intensities were subtracted by background signals.
# [2] = In vivo pharmacokinetic (PK) analysis, intravenous and oral; design: species or system rats; settings: for bioavailability: read-out: Bioavailability (BA)
# Description: A. In vivo pharmacokinetic (PK) analysis of JH010 (performed in rats). […] B Effect of SLC-D011 on human ERG (hERG). […] C In vivo pharmacokinetic analysis of SLD-D011. […] HEK293 cells transiently transfected with GFP-PG vectors were treated with SLC-D011 for 24 hr (n = 3 independent experiment; two-tailed Student’s t test). […] “Con” means dimethyl sulfoxide (DMSO)-treated control.
# At pre-set time-points, blood concentration of JH4 was determined by LC-MS/MS analysis[22],[23]. Other chemicals were also tested using similar protocol. In vitro ADME studies (plasma protein binding, CYP inhibition, microsomal stability, plasma stability, and hERG inhibition) were performed by New Drug Development Center (Daegu, Korea) using standard protocols[24],[25].
# [3] = system: HGPS cells; assay: Cell proliferation of HGPS cells (MTT assay, cell counting); assay type: cell-based, human; settings: for Cell proliferation (rate): 7 days, normalized to DMSO-treated cells; for Cell proliferation after treatment with SLC-D011, Ave / Cell counting after treatment with chemicals, Ave: average; for Cell proliferation after treatment with SLC-D011 / Cell counting after treatment with chemicals: single replicates
# Description: To determine the cellular viability, cells were treated with lonafarnib or SLC-D011 for 2 weeks. For MTT assay, cells were incubated with 0.5 mg/ml of 3-(4,5-dimethythiazol-2-yl)-2,5-diphenyl tetrazolium bromide (MTT) solution for 6 hr at 37 °C. After removing MTT solution, the precipitated materials were dissolved in […] DMSO and quantified by measuring the absorbance at 540 nm.
# Fig. S4. Ef fect s of J H4, J H010, and SLC-D011 in ameliorating nuclear deformation of HGPS fibroblasts.
# A. JH4, JH010, and SLC-D011 increase population of HGPS cells (n = 3 independent experiment; two-
# tailed Student’s t -test), **p<0.001. […]
# DAPI indicated DNA. C. Treatment with SLC-D011 (1 µM) for 7 days increased
# cell proliferation in three different HGPS cells but not in normal fibroblasts (n = 3 independent experiments;
# two-tailed Student’s t-test), **p < 0.001, N.S: not significant. AU, arbitrary units. […]
compound,measurement,setting,value
CC1(C)Oc2cc3oc(=O)ccc3cc2C[C@@H]1OC/C=C/c1ccccc1 [SLC-D011],H3K9me3 intensity,[1],0.227 AU and 0.219 AU and 0.255 AU and 0.254 AU
same,"H3K9me3 positive cells after treatment with chemicals, Ave",[1]; 2μM,19.5
same,H3K9me3 positive cells after treatment with chemicals,[1]; 2μM,15 and 23 and 20 and 19 and 22 and 18
same,"H3K9me3 positive cells after treatment with chemicals, Ave",[1]; 5μM,25.1667
same,H3K9me3 positive cells after treatment with chemicals,[1]; 5μM,20 and 24 and 27 and 28 and 29 and 23
same,"H3K9me3 positive cells after treatment with chemicals, Ave",[1]; 10μM,29
same,H3K9me3 positive cells after treatment with chemicals,[1]; 10μM,24 and 33 and 32 and 30 and 29 and 26
same,H3K9me3 intensity,[1]; mean,0.2387 AU
same,Effect on H3K9me3 expression,[1]; HGPS cells,induce H3K9me3 expression
same,bioavailability,"[2]; rat, blood, oral, 10 mg/kg",58.1%
same,Cmax,"[2]; rat, blood, oral 5mg/kg (n=3)",29.7 ng/mL
same,Tmax,"[2]; rat, blood, oral 5mg/kg (n=3)",2.7 h
same,AUC,"[2]; rat, blood, oral 5mg/kg (n=3), read-out: AUCall, Mean",144 ng·h/mL
same,bioavailability,"[2]; rat, blood, oral 5 mg/kg",65.9%
same,Cell proliferation (rate),"[3]; AG03198, 2uM",1.467 and 1.31 and 1.235 and 1.393 and 1.367 and 1.407
same,Cell proliferation (rate),"[3]; AG03198, 2uM, mean",1.363
same,Cell proliferation (rate),"[3]; AG03198, 5uM",2.067 and 2.103 and 1.735 and 2.25 and 2.2 and 2.259
same,Cell proliferation (rate),"[3]; AG03198, 5uM, mean",2.102
same,Cell counting,"[3]; AG03198, 0.1μM, Ave",13.375
same,Cell counting,"[3]; AG03198, 0.1μM, individual replicate",15 and 16 and 14 and 8 and 13 and 12
same,Cell counting,"[3]; AG03198, 0.2μM, Ave",12.25
same,Cell counting,"[3]; AG03198, 0.2μM, individual replicate",11 and 14 and 12 and 13 and 16 and 10
same,Cell counting,"[3]; AG03198, 0.5μM, Ave",13.625
same,Cell counting,"[3]; AG03198, 0.5μM, individual replicate",15 and 13 and 17 and 11 and 10 and 12 and 18
same,Cell counting,"[3]; AG03198, 1μM, Ave",18
same,Cell counting,"[3]; AG03198, 1μM, individual replicate",17 and 21 and 26 and 16 and 13
same,"Cell proliferation after treatment with SLC-D011, Ave",[3]; AG03198,2.85 AU
same,Cell proliferation after treatment with SLC-D011,[3]; AG03198,2.5 AU (2×) and 2.2 AU and 2.7 AU and 3.3 AU and 3.7 AU and 3 AU and 2.9 AU
same,"Cell proliferation after treatment with SLC-D011, Ave",[3]; AG11498,3.325 AU
same,Cell proliferation after treatment with SLC-D011,[3]; AG11498,3.3 AU (2×) and 3.6 AU and 2.9 AU and 3.5 AU and 3.4 AU and 3.9 AU and 2.7 AU
same,"Cell counting after treatment with chemicals, Ave",[3]; AG11513,29.75
same,"Cell proliferation after treatment with SLC-D011, Ave",[3]; AG11513,2.875 AU
same,Cell counting after treatment with chemicals,[3]; AG11513,20 (2×) and 29 and 32 and 37 and 42 and 33 and 25
same,Cell proliferation after treatment with SLC-D011,[3]; AG11513,2 AU (2×) and 2.9 AU and 3.2 AU and 3.3 AU (2×) and 3.8 AU and 2.5 AU
same,"Cell proliferation after treatment with SLC-D011, Ave",[3]; N9,3.975 AU
same,Cell proliferation after treatment with SLC-D011,[3]; N9,3.9 AU and 4.2 AU (2×) and 3.8 AU (2×) and 4 AU and 4.4 AU and 3.5 AU
same,Concentration promoting cell proliferation and ameliorating nuclear abnormality,"[3]; direct cell counting assay, HGPS cells",100 nM
CC1(C)Oc2cc3oc(=O)ccc3cc2CC1OC(=O)C=Cc1cccnc1 (stereo not shown) [JH4],"H3K9me3 positive cells after treatment with chemicals, Ave",[1]; 2μM,14.5
same,H3K9me3 positive cells after treatment with chemicals,[1]; 2μM,13 and 17 and 15 (2×) and 11 and 16
same,"H3K9me3 positive cells after treatment with chemicals, Ave",[1]; 5μM,21.6667
same,H3K9me3 positive cells after treatment with chemicals,[1]; 5μM,27 and 16 and 20 and 22 (2×) and 23
same,"H3K9me3 positive cells after treatment with chemicals, Ave",[1]; 10μM,27
same,H3K9me3 positive cells after treatment with chemicals,[1]; 10μM,30 and 29 and 24 and 25 and 27 (2×)
same,"AUCINF_obs, Mean",[2]; intravenous 5mg/kg (n=3),1.4 ng·h/mL
same,"AUCall, Mean",[2]; intravenous 5mg/kg (n=3),1.3 ng·h/mL
same,"MRTINF_obs, Mean",[2]; intravenous 5mg/kg (n=3),0.2 h
same,"T1/2, Mean",[2]; intravenous 5mg/kg (n=3),6 min
same,"Vss_obs, Mean",[2]; intravenous 5mg/kg (n=3),673.9 L/kg
same,"Plasma concentration, Mean","[2]; intravenous 5mg/kg (n=3), 0.08 hr",4.7 ng/mL
same,"Plasma concentration, Mean","[2]; intravenous 5mg/kg (n=3), 0.25 hr",1.5 ng/mL
same,"Plasma concentration, Mean","[2]; intravenous 5mg/kg (n=3), 0.5 hr",0.6 ng/mL
same,Half-life after in vivo oral administration,[2]; oral 10 mg/kg,extremely short
same,Cell proliferation (rate),"[3]; AG03198, 2uM",1.267 and 1.276 and 1.118 and 1.25 and 1.333 and 1.2963
same,Cell proliferation (rate),"[3]; AG03198, 2uM, mean",1.257
same,Cell proliferation (rate),"[3]; AG03198, 5uM",1.833 and 1.759 and 1.647 and 1.964 and 1.667 and 1.926
same,Cell proliferation (rate),"[3]; AG03198, 5uM, mean",1.799
same,"Cell counting after treatment with chemicals, Ave",[3]; AG11513,28
same,Cell counting after treatment with chemicals,[3]; AG11513,22 and 29 and 19 and 40 and 32 and 37 and 17 and 28
